Laboratory results reported in patent US7943660B2, “Inhibitors of the LFA-1/ICAM-1 interaction and uses thereof” (Dominion Pharmakine S.L., priority 2005, dated 2011).

Assays:
Co26-CC cells = experiment: Hepatic metastasis assay (intrasplenic injection of Co26-CC cells); format: in vivo, BALB/c mice; details: Co26-CC cells preincubated with 10 μg/ml HC0303 for 30 min before intrasplenic injection; day 14; vs untreated cells; FIG. 9; P<0.01
Experimental: Hepatic metastases were produced by the intrasplenic injection into anesthetized male BALB/c mice (6- to 8-weeks old) of 1.5×10^5 viable Co26-CC cells suspended in 0.1 ml Hanks' balanced salt solution. Some cells were incubated with 10 μg/ml compound HC0303 for 30 min prior to their inoculation. Mice were killed by cervical dislocation on the 14th day after the injection of cancer cells. An integrated image analysis system (Olympus Microimage 4.0 capture kit) connected to an Olympus BX51TF microscope was used to quantify the number of foci and their average diameters in serially-cut and hematoxylin/eosin stained hepatic tissue sections.
Densitometric analysis of digitalized microscopic images was used to distinguish metastatic tissue from normal hepatic tissue. Previously described stereological procedures were employed (cf. Vidal-Vanaclocha et al., Cancer Research, 1994, 54(10):2667-72) and the following parameters were calculated: the liver metastasis density, which was the number of metastases per 100 mm^3 of liver (based on the mean number of foci detected in fifteen 10×10 mm^2 sections per liver) and the liver metastasis volume (mean percentage of liver volume occupied by metastases).
In vitro effect of compound HC0303 on in vivo metastatic behavior of cancer cells was tested in Co26-CC cells. […] In addition, the percentage of liver volume occupied by metastases was assessed. […]

[1] = tested on: Co26 murine colon carcinoma (Co26-CC) cell adhesion to HSE cells; experiment: Co26 colon carcinoma cell adhesion to HSE cells; format: cell-based; details: FIG. 6B
Experimental: Time-dependent adhesion assays was carried out on a quantitative basis according to previous validated bioassays (Vidal-Vanaclocha et al., Cancer Research, 1994, 54(10):2667-72). For tumor cell pre-labelling, they were allowed to accumulate the non-fluorescent sterase substrate BCECF-AM and to hydrolyze it to its fluorescent product BCECF which becomes trapped inside living cells. To do this, 50 μg of BCECF-AM were diluted in dry DMSO (5 μl) and DME medium until […] (40 μg/ml).
Tumor cells (5×10^6) were incubated in BCECF-AM solution at 37° C. for 30 min. After gently washing, tumor cells were resuspended in fresh medium (DMEM without phenol red) at a concentration of 2×10^6 cells/ml.
Twenty-four hours post-plating, primary cultured hepatic sinusoidal endothelial (HSE) cells were also used for adhesion assay. To determine the basal autofluorescence per well, plates were read on a fluorometric microplate reader (Multiskan Ascent, Thermo Labsystems) using 485/22 nm excitation and the 530/25 nm emission filter. Then, 2×10^5 labeled tumor cells were added to each well of HSE cells and to collagen pre-coated control wells.
However, in order to determine the exact number of cells in each well, co-culture plates were read for a second time. Then, plates were incubated at 37° C. […]

[2] = tested on: VEGF production by B16M cells; experiment: Measurement of VEGF production by B16M cells in response to soluble ICAM-1 and H2O2 (ELISA); format: cell-based, murine; details: 10 μg/ml HC0303 30 min prior to 200 ng/ml sICAM-1, then DMEM or 10 μM H2O2 for 2 hours; FIG. 8; P<0.01
Experimental: Cultured B16M cells were incubated for 30 min with 200 ng/ml soluble ICAM-1 prior to either basal medium (DMEM) or 10 μM H2O2. Some cells were pre-incubated with 1 μg/ml anti-murine LFA-1 monoclonal antibody or 10 μg/ml compound HC0303 for 30 min before ICAM-1 addition. After 2 hours, supernatants were collected, centrifuged at 1,000 g for 10 min and subjected to 0.22 μm filtration.
The addition of either 1 μg/ml anti-murine LFA-1 monoclonal antibody or 10 μg/ml compound HC0303 for 30 minutes prior to sICAM-1 abrogated induced VEGF production (FIG. 8). Data represent the mean ±SD of two separate experiments; differences in VEGF production in treated versus untreated cells (*) and ICAM-1/H2O2-treated cells were statistically significant (P<0.01) by ANOVA and Bonferroni's post-hoc test.

melting point: 104 to 105 °C
SMILES: CC[C@H](C)C(OCc1ccccc1)[C@@H]1[C@H]([N+](=O)[O-])[C@H](c2ccccc2)N[C@]1(C)C(=O)NCCC(=O)O (stereo partly drawn) [HC0303, 3-[(2S,3R,4S,5S)-3-[(2S)-1-(Benzyloxy)-2-methylbutyl]-2-methyl-4-nitro-5-phenylpyrrolidine-2-carboxamido]propanoic acid]
liver metastasis density (number of foci/100 mm^3) (Co26-CC cells): almost abrogated | liver metastasis volume (percentage of liver volume occupied by metastases) (Co26-CC cells): almost abrogated | PMA-induced cancer cell adhesion to HSE cells ([1]; 100 ng/ml PMA 30 min, then HC0303 20 μg/5×10^5 cells for 30 min, P<0.01): significantly decreased | adhesion to untreated HSE cells (no PMA) ([1]; HC0303 20 μg/5×10^5 cells for 30 min): did not affect | induced VEGF production (sICAM-1 / H2O2) [2]: abrogated
